# Test results as given in patent US20230031406A1, “COMPOUNDS AND COMPOSITIONS FOR TREATING CONDITIONS ASSOCIATED WITH NLRP ACTIVITY” (Novartis AG, priority 2018, published 2023).
# Test system: PMA-differentiated THP-1 cells
# Test: IL-1β production in PMA-differentiated THP-1 cells stimulated with gramicidin (hTHP-1 assay containing 2% fetal bovine serum; Procedures 1 and 2)
# Type: cell-based, human
# Conditions: Homo sapiens, THP-1, Table B1; 2% fetal bovine serum; class symbols; read-out: Average IC50 of compounds in hTHP-1 assay: hTHP-1 IC50
# Experimental: The following protocol is suitable for testing the activity of the compounds disclosed herein. Procedure 1: IL-1β Production in PMA-Differentiated THP-1 Cells Stimulated with Gramicidin.
# THP-1 cells were purchased from the American Type Culture Collection and sub-cultured according to instructions from the supplier. Cells were cultured in complete RPMI 1640 (containing 10% heat inactivated FBS, penicillin (100 units/ml) and streptomycin (100 μg/ml)), and maintained in log phase prior to experimental setup. Prior to the experiment, compounds were dissolved in dimethyl sulfoxide (DMSO) to generate a 30 mM stock. The compound stock was first pre-diluted in DMSO to 3, 0.34, 0.042 and 0.0083 mM intermediate concentrations and subsequently spotted using Echo550 liquid handler into an empty 384-well assay plate to achieve desired final concentration (e.g. 100, 33, 11, 3.7, 1.2, 0.41, 0.14, 0.046, 0.015, 0.0051, 0.0017 μM). DMSO was backfilled in the plate to achieve a final DMSO assay concentration of 0.37%. The plate was then sealed and stored at room temperature until required.
# THP-1 cells were treated with PMA (Phorbol 12-myristate 13-acetate) (20 ng/ml) for 16-18 hours. On the day of the experiment the media was removed and adherent cells were detached with trypsin for 5 minutes. Cells were then harvested, washed with complete RPMI 1640, spun down, and resuspended in RPMI 1640 (containing 2% heat inactivated FBS, penicillin (100 units/ml) and streptomycin (100 μg/ml). The cells were plated in the 384-well assay plate containing the spotted compounds at a density of 50,000 cells/well (final assay volume 50 μl). Cells were incubated with compounds for 1 hour and then stimulated with gramicidin (5 μM) (Enzo) for 2 hours. Plates were then centrifuged at 340 g for 5 min. Cell free supernatant (40 μL) was collected using a 96—CHannel PlateMaster (Gilson) and the production of IL-1β was evaluated by HTRF (cisbio). The plates were incubated for 18 h at 4° C. and read using the preset HTRF program (donor emission at 620 nm, acceptor emission at 668 nm) of the SpectraMax i3x spectrophotometer (Molecular Devices, software SoftMax 6). A vehicle only control and a dose titration of CRID3 (100-0.0017 μM) were run concurrently with each experiment.
# Procedure 2: IL-1β Production in PMA-Differentiated THP-1 Cells Stimulated with Gramicidin.
# THP-1 cells were purchased from the American Type Culture Collection and sub-cultured according to instructions from the supplier. Prior to experiments, cells were cultured in complete RPMI 1640 (containing 10% heat inactivated FBS, penicillin (100 units/ml) and streptomycin (100 μg/ml)), and maintained in log phase prior to experimental setup. Prior to the experiment THP-1 were treated with PMA (Phorbol 12-myristate 13-acetate) (20 ng/ml) for 16-18 hours. Compounds were dissolved in dimethyl sulfoxide (DMSO) to generate a 30mM stock. On the day of the experiment the media was removed and adherent cells were detached with trypsin for 5 minutes. Cells were then harvested, washed with complete RPMI 1640, spun down, resuspended in RPMI 1640 (containing 2% heat inactivated FBS, penicillin (100 units/ml) and streptomycin (100 μg/ml). The cells were plated in a 384-well plate at a density of 50,000 cells/well (final assay volume […]). Compounds were first dissolved in assay medium to obtain a 5× top concentration of 500 μM. 10 step dilutions (1:3) were then undertaken in assay medium containing 1.67% DMSO. 5× compound solutions were added to the culture medium to achieve desired final concentration (e.g. 100, 33, 11, 3.7, 1.2, 0.41, 0.14, 0.046, 0.015, 0.0051, 0.0017 μM). Final DMSO concentration was at 0.37%. Cells were incubated with compounds for 1 hour and then stimulated with gramicidin (5 μM) (Enzo) for 2 hours. Plates were then centrifuged at 340 g for 5 min. Cell free supernatant (40 μL) was collected using a 96—CHannel PlateMaster (Gilson) and the production of IL-1β was evaluated by HTRF (cisbio). […]
row,SMILES,IC50 [µM]
1,"CN(C)Cc1ccc(S(N)(=O)=NC(=O)Nc2c3c(nc4c2CCC4(C)C)CCC3)cc1 (single isomer, unassigned) [Compound 125b, (R) or (S)-N′-((3,3-dimethyl-1,2,3,5,6,7-hexahydro-dicyclopenta[b,e]pyridin-8-yl)carbamoyl)-4-((dimethylamino)meth-yl)benzene-sulfonimidamide]",1 to 5
2,"CN(C)Cc1ccc(S(N)(=O)=NC(=O)Nc2c3c(nc4c2CCC4)CCC3)cc1 (single isomer, unassigned) [Compound 130b, (R) or (S)-4-((dimethylamino)methyl)-N′-((1,2,3,5,6,7-hexahydro-dicyclopenta[b,e]pyridin-8-yl)carbamoyl)benzene-sulfonamidamide]",1 to 5

# Same assay, conditions: Homo sapiens, THP-1, Table B1; 2% fetal bovine serum; numeric bounds; read-out: Average IC50 of compounds in hTHP-1 assay: hTHP-1 IC50
row,SMILES,IC50 [µM]
1,"CN(C)Cc1ccc(S(N)(=O)=NC(=O)Nc2c3c(nc4c2CCC4(C)C)CCC3)cc1 (single isomer, unassigned) [Compound 125a, (S) or (R)-N′-((3,3-dimethyl-1,2,3,5,6,7-hexahydro-dicyclopenta[b,e]pyridin-8-yl)carbamoyl)-4-((dimethylamino)meth-yl)benzene-sulfonimidamide]",> 30
2,"CC1CCc2c1nc1c(c2NC(=O)N=S(N)(=O)c2ccn(C(C)C)n2)CCC1 (single isomer, unassigned) [Compound 129ab, (S,S) or (S,R)-1-isopropyl-N′-((3-methyl-1,2,3,5,6,7-hexa-hydrodicyclo-penta[b,e]pyridin-8-yl)carbamoyl)-1H-pyrazole-3-sulfonimidamide]",> 30
3,"CN(C)Cc1ccc(S(N)(=O)=NC(=O)Nc2c3c(nc4c2CCC4)CCC3)cc1 (single isomer, unassigned) [Compound 130a, (S) or (R)-4-((dimethylamino)methyl)-N′-((1,2,3,5,6,7-hexahydrodicyclo-penta[b,e]pyridin-8-yl)carbamoyl)benzene-sulfonamidamide]",> 30

# Same assay, conditions: Table B1; 2% fetal bovine serum; class symbols; read-out: Average IC50 of compounds in hTHP-1 assay: hTHP-1 IC50
row,SMILES,IC50 [µM]
1,"CC(C)n1ccc(S(N)(=O)=NC(=O)Nc2c3c(nc4c2CCC4(C)C)CCC3)n1 (single isomer, unassigned) [Compound 126a, (R) or (S)-N′-((3,3-dimethyl-1,2,3,5,6,7-hexahydro-dicyclopenta[b,e]pyridin-8-yl)carbamoyl)-1-isopropyl-1H-pyrazole-3-sulfonimidamide]",0.04 to 0.2
2,"CC(C)n1ccc(S(N)(=O)=NC(=O)Nc2c3c(nc4c2CCC4(C)C)CCC3)n1 (single isomer, unassigned) [Compound 126b, (S) or (R)-N′-((3,3-dimethyl-1,2,3,5,6,7-hexahydro-dicyclopenta[b,e]pyridin-8-yl)carbamoyl)-1-isopropyl-1H-pyrazole-3-sulfonimidamide]",5 to 30
3,"CC(C)(O)c1csc(S(N)(=O)=NC(=O)Nc2c3c(nc4c2CCC4(C)C)CCC3)c1 (single isomer, unassigned) [Compound 127a, (S) or (R)-N′-((3,3-dimethyl-1,2,3,5,6,7-hexahydro-dicyclopenta[b,e]pyridin-8-yl)carbamoyl)-4-(2-hydroxypropan-2-yl)thiophene-2-sulfonimidamide]",1 to 5
4,"CC(C)(O)c1csc(S(N)(=O)=NC(=O)Nc2c3c(nc4c2CCC4(C)C)CCC3)c1 (single isomer, unassigned) [Compound 127b, (R) or (S)-N′-((3,3-dimethyl-1,2,3,5,6,7-hexahydro-dicyclopenta[b,e]pyridin-8-yl)carbamoyl)-4-(2-hydroxypropan-2-yl)thio-phene-2-sulfonimidamide]",0.04 to 0.2
5,"CC(C)(O)c1ncc(S(N)(=O)=NC(=O)Nc2c3c(nc4c2CCC4)CCC3)s1 (single isomer, unassigned) [Compound 128a, (R) or (S)-N′-((1,2,3,5,6,7-hexahydrodicyclo-penta[b,e]pyridin-8-yl)carbamoyl)-2-(2-hydroxypropan-2-yl)thiazole-5-sulfonimidamide]",0.2 to 1
6,"CC(C)(O)c1ncc(S(N)(=O)=NC(=O)Nc2c3c(nc4c2CCC4)CCC3)s1 (single isomer, unassigned) [Compound 128b, (S) or (R)-N′-((1,2,3,5,6,7-hexahydrodicyclo-penta[b,e]pyridin-8-yl)carbamoyl)-2-(2-hydroxypropan-2-yl)thiazole-5-sulfonimidamide]",5 to 30
7,"CC1CCc2c1nc1c(c2NC(=O)N=S(N)(=O)c2ccn(C(C)C)n2)CCC1 (single isomer, unassigned) [Compound 129aa, (R,R) or (R,S)-1-isopropyl-N′-((3-methyl-1,2,3,5,6,7-hexa-hydrodicyclo-penta[b,e]pyridin-8-yl)carbamoyl)-1H-pyrazole-3-sulfonimidamide]",0.04 to 0.2
8,"CC1CCc2c1nc1c(c2NC(=O)N=S(N)(=O)c2ccn(C(C)C)n2)CCC1 (single isomer, unassigned) [Compound 129ba, (R,S) or (R,R)-1-isopropyl-N′-((3-methyl-1,2,3,5,6,7-hexa-hydrodicyclo-penta[b,e]pyridin-8-yl)carbamoyl)-1H-pyrazole-3-sulfonimidamide]",1 to 5
9,"CC1CCc2c1nc1c(c2NC(=O)N=S(N)(=O)c2ccn(C(C)C)n2)CCC1 (single isomer, unassigned) [Compound 129bb, (S,R) or (S,S)-1-isopropyl-N′-((3-methyl-1,2,3,5,6,7-hexa-hydrodicyclo-penta[b,e]pyridin-8-yl)carbamoyl)-1H-pyrazole-3-sulfonimidamide]",5 to 30
10,"CC1CCc2c1nc1c(c2NC(=O)N=S(N)(=O)c2cc(C(C)(C)O)cs2)CCC1C (single isomer, unassigned) [Compound 131c, (S,R,S) and (S,S,R) or (S,R,R) or (S,S,S)-N′-((3,5-dimethyl-1,2,3,5,6,7-hexa-hydrodicyclo-penta[b,e]pyridin-8-yl)carbamoyl)-4-(2-hy-droxypropan-2-yl)thiophene-2-sulfonimidamide]",5 to 30
11,"CC1CCc2c1nc1c(c2NC(=O)N=S(N)(=O)c2cc(C(C)(C)O)cs2)CCC1C (single isomer, unassigned) [Compound 131d, (S,R,R) or (S,S,S) or (S,R,S) and (S,S,R)-N′-((3,5-dimethyl-1,2,3,5,6,7-hexa-hydrodicyclopenta[b,e]pyridin-8-yl)carbamoyl)-4-(2-hydroxypropan-2-yl)thio-phene-2-sulfonimidamide]",5 to 30
12,"CC1CCc2c1nc1c(c2NC(=O)N=S(N)(=O)c2cc(C(C)(C)O)cs2)CCC1C (single isomer, unassigned) [Compound 131e, (S,S,S) or (S,R,S) and (S,S,R) or (S,R,R)-N′-((3,5-dimethyl-1,2,3,5,6,7-hexahydro-dicyclopenta[b,e]pyridin-8-yl)carbamoyl)-4-(2-hydroxypropan-2-yl)thio-phene-2-sulfonimidamide]",5 to 30
13,"CC1CCc2c1nc1c(c2NC(=O)N=S(N)(=O)c2cc(C(C)(C)O)cs2)CCC1C (single isomer, unassigned) [Compound 131g, (R,R,R) or (R,S,S)-N′-((3,5-dimethyl-1,2,3,5,6,7-hexa-hydrodicyclo-penta[b,e]pyridin-8-yl)carbamoyl)-4-(2-hydroxypropan-2-yl)thio-phene-2-sulfonimidamide]",0.2 to 1
